Data set [1] is described as follows: Encapsulation efficiency of RNA (QUANT-IT RIBOGREEN RNA assay). Conditions: Table 21-1. The format is physicochemical. As for the experimental part: For nanoparticle compositions including an RNA, a QUANT-IT™ RIBOGREEN® RNA assay (Invitrogen Corporation Carlsbad, Calif.) can be used to evaluate the encapsulation of an RNA by the nanoparticle composition. The samples are diluted to a concentration of approximately 5 μg/mL in a TE buffer solution (10 mM Tris-HCl, 1 mM EDTA, pH 7.5). 50 μL of the diluted samples are transferred to a polystyrene 96 well plate and either 50 μL of TE buffer or 50 μL of a 2% Triton X-100 solution is added to the wells. The plate is incubated at a temperature of 37° C. for 15 minutes. The RIBOGREEN® reagent is diluted 1:100 in TE buffer, and 100 μL of this solution is added to each well. The fluorescence intensity can be measured using a fluorescence plate reader (Wallac Victor 1420 Multilablel Counter; Perkin Elmer, Waltham, Mass.) at an excitation wavelength of, for example, about 480 nm and an emission wavelength of, for example, about 520 nm. The fluorescence values of the reagent blank are subtracted from that of each of the samples and the percentage of free RNA is determined by dividing the fluorescence intensity of the intact sample (without addition of Triton X-100) by the fluorescence value of the disrupted sample (caused by the addition of Triton X-100).

A short description of data set [2]: Particle size and polydispersity index of nanoparticle compositions (Zetasizer Nano ZS). The format is physicochemical. Particulars: for PDI / Size (nm): Table 21-1. The protocol: A Zetasizer Nano ZS (Malvern Instruments Ltd, Malvern, Worcestershire, UK) can be used to determine the particle size, the polydispersity index (PDI) and the zeta potential of the nanoparticle compositions in 1×PBS in determining particle size and 15 mM PBS in determining zeta potential.

Data set [3] is described as follows: pKa of nanoparticle compositions. The format is physicochemical. Particulars: Table 21-1.
The test system of data set [4] is modified luciferase expression. The experiment in a line: Expression of Luc in different organs (liver, lung, spleen, femur) 6 hours after intravenous administration. The format is in vivo. Particulars: i.v., 0.5 mpk; for Total Flux Liver / Total Flux Lung / Total Flux Spleen: Table 21-3, mice; for total flux in organs, rank or organ comparison (in words): mice, each organ or overall. As for the experimental part: The efficacy of the nanoparticle compositions presented in Tables 1, 1a, 17-1, 19-1, 20-1 and 21-1 was further evaluated by measuring the expression of modified luciferase in the liver, lung, spleen, and femur upon administration of a given composition. Formulations were administered intravenously to mice (n=3) at a dosage of 0.5 mpk and bioluminescence measured after 6 hours. The standard MC3 formulation and a PBS control were also tested.

Data set [5] concerns luciferase (Luc) mRNA expression. Put plainly: Expression of Luc induced by sample formulations, whole-body bioluminescence after intravenous administration. The format is in vivo. Conditions: mice, i.v., 0.5 mg/kg; for Total Flux 3 hours / Total Flux 6 hours / Total Flux 24 hours: Table 21-2. As for the experimental part:
In order to monitor how effectively various nanoparticle compositions deliver therapeutic and/or prophylactic agents to targeted cells, different nanoparticle compositions including a particular therapeutic and/or prophylactic agent (for example, a modified or naturally occurring RNA such as an mRNA) are prepared and administered to rodent populations. Mice are intravenously, intramuscularly, intraarterially, or intratumorally administered a single dose including a nanoparticle composition with a formulation such as those provided in Table 1. In some instances, mice may be made to inhale doses. Dose sizes may range from 0.001 mg/kg to 10 mg/kg, where 10 mg/kg describes a dose including 10 mg of a therapeutic and/or prophylactic agent in a nanoparticle composition for each 1 kg of body mass of the mouse. A control composition including PBS may also be employed.
Upon administration of nanoparticle compositions to mice, dose delivery profiles, dose responses, and toxicity of particular formulations and doses thereof can be measured by enzyme-linked immunosorbent assays (ELISA), bioluminescent imaging, or other methods. For nanoparticle compositions including mRNA, time courses of protein expression can also be evaluated. Samples collected from the rodents for evaluation may include blood, sera, and tissue (for example, muscle tissue from the site of an intramuscular injection and internal tissue); sample collection may involve sacrifice of the animals.
The efficacy of the nanoparticle compositions presented in Tables 1, 1a, 17-1, 19-1, 20-1 and 21-1 was evaluated with a bioluminescence study. Formulations were administered intravenously to mice (n=6) at a dosage of 0.5 mg/kg (mpk) and bioluminescence measured at 3, 6, and 24 hour time points. The standard MC3 formulation and a PBS control were evaluated for comparison.

On to `CCCCC/C=C\C/C=C\CCCCCCCCC1(CCCCCCCC/C=C\C/C=C\CCCCC)CC(OC(=O)CCCN(C)C)C1` [Compound 21-2, 3,3-Di((9Z,12Z)-octadeca-9,12-dien-1-yl)cyclobutyl 4-(dimethylamino)butanoate], for which, in data set [1], the “EE (%)” value turned out to be 99.4%. In addition, in data set [2], the PDI came to 0.200 and the “Size (nm)” value turned out to be 83.0 nm. Besides, the “particle size, rank within the named table (in words)” value in data set [2] (comparison amongst compositions) was “smallest particles”. The compound also returned a pKa in data set [3] of 6.98. For the same compound, in data set [4], the “Total Flux Liver” value was 5.50E+07; the “Total Flux Lung” value came out at 2.53E+05; the “Total Flux Spleen” value turned out to be 1.56E+07; the “total flux in organs, rank or organ comparison (in words)” value is “lowest expression in each organ”. Moreover, in data set [5], the “Total Flux 3 hours” value came to 5.99E+08, the “Total Flux 6 hours” value is recorded as 8.09E+08 and the “Total Flux 24 hours” value is recorded as 8.09E+08. For the same compound, in data set [5] (each time point), the “total flux / Luc expression, rank within the named table (in words)” value was “least expression at 3 and 6 hours”.
`CCCCC/C=C\C/C=C\CCCCCCCCC1(CCCCCCCC/C=C\C/C=C\CCCCC)CCC(OC(=O)CCCN(C)C)C1` (stereo not shown) [Compound 21-4, 3,3-Di((9Z,12Z)-octadeca-9,12-dien-1-yl)cyclopentyl 4-(dimethylamino)butanoate]: the “EE (%)” value in data set [1] is on record as 98.8%. Further, in data set [2], the PDI came to 0.193 and the “Size (nm)” value is recorded as 94.9 nm. Besides, the pKa in data set [3] was 7.01. In addition, in data set [4], the “Total Flux Liver” value was determined as 9.89E+07; the “Total Flux Lung” value is listed as 2.13E+05; the “Total Flux Spleen” value came out at 1.27E+07; the “total flux in organs, rank or organ comparison (in words)” value is listed as “lowest expression in each organ”. Besides, in data set [5], the “Total Flux 3 hours” value is recorded as 1.15E+09, the “Total Flux 6 hours” value is recorded as 1.26E+09 and the “Total Flux 24 hours” value was 1.26E+09.
As for `CCCCC/C=C\C/C=C\CCCCCCCC1C(CCCCCCC/C=C\C/C=C\CCCCC)C1CN(C)C` (stereo not shown) [Compound 21-6, 1-(2,3-Di((8Z,11Z)-heptadeca-8,11-dien-1-yl)cyclopropyl)-N,N-dimethylmethanamine], the “EE (%)” value in data set [1] was determined as 98.9%. In addition, in data set [2], the PDI was 0.110 and the “Size (nm)” value worked out at 86.8 nm. In data set [3], this compound returned a pKa of 6.99. In data set [4], the “Total Flux Liver” value turned out to be 4.79E+08, the “Total Flux Lung” value amounted to 2.09E+06 and the “Total Flux Spleen” value is 1.94E+07. Moreover, in data set [5], the “Total Flux 3 hours” value worked out at 2.92E+09, the “Total Flux 6 hours” value is 4.54E+09 and the “Total Flux 24 hours” value was 1.40E+08.

The record behind these values is patent US10195156B2, “Compounds and compositions for intracellular delivery of agents” (ModernaTX, Inc., priority 2015, dated 2019).
